Measurements as given in patent US8440810B2, “Riboswitches, methods for their use, and compositions for use with riboswitches” (Yale University, priority 2002, dated 2013).
pKd: −log10 of the molar value. “Also recorded” adds a separate entry of the source. Where two headings read alike, the source gives them in different places.

Tests used:
[1] = tested on: 202-nucleotide leader sequence of the btuB mRNA; format: binding, Escherichia coli; settings: AdoCbl analogs of FIG. 4
Protocol: Precursor mRNA leader molecules were prepared by in vitro transcription from templates generated by PCR (see In vivo Expression Constructs and Assays section below) and 5′ ^32p-labeled using methods described previously (Soukup and Breaker, Allosteric nucleic acid catalysts. Curr. Opin. Struct. Biol. 10, […] (2000)). Approximately 20 nM of labeled RNA precursor was incubated as described in the brief description of FIG. 1. Accompanying digestions were carried out using reaction conditions similar to those described previously (Soukup and Breaker, Relationship between internucleotide linkage geometry and the stability of […]. RNA 5, 1308-1325 (1999)). […]
Metabolite-dependent conformational changes in the 202-nucleotide leader sequence of the btuB mRNA. […] The image was generated using a phosphorimager (Molecular Dynamics), and cleavage yields were quantitated by using ImageQuant software. […]
The btuB mRNA leader forms a saturable binding site for AdoCbl. […] 5′-^32P-labeled mRNA leader molecules were incubated, separated, and analyzed as described in the in the legend to FIG. 1A, and include identical control and marker lanes as indicated. […] Fraction cleaved values were normalized relative to the highest and lowest cleavage values measured for each location, including the values obtained upon incubation in the absence of AdoCbl. […]

btuB leader-lacZ fusion [2] = assay: btuB-lacZ expression assay; format: cell-based, E. coli; settings: wild-type btuB leader
80 ydhL RNA = assay: In-line probing of 80 ydhL RNA; format: binding, B. subtilis
93 xpt RNA [3] = assay: In-line probing of 93 xpt RNA; format: binding, B. subtilis; settings: for modulation of spontaneous cleavage pattern: 1 μM (adenine as much as 1 mM), 93 xpt and 201 xpt
179 lysC RNA [4] = format: binding, B. subtilis; settings: 50 μM unlabeled compound, additional 10 hr
lysC 5′-UTR template = assay: In vitro transcription termination assay, lysC 5′-UTR; settings: 10 mM compound
124 yitJ RNA = assay: In-line probing of 124 yitJ RNA; format: binding, B. subtilis
metI leader construct = format: biochemical, B. subtilis; settings: 50 μM; in all instances (yitJ, yoaD, metK, metI leaders)
165 thiM RNA = format: binding, E. coli; settings: for structure modulation: 40 μM each compound; for pKd: thiM RNA as reported in Example 3 (FIG. 13), read-out: apparent KD
Description: Specifically, TPP-dependent modulation of the spontaneous cleavage of RNA constructs was visualized by polyacrylamide gel electrophoresis (PAGE). […] Some RNAs were subjected to no reaction, partial digestion with alkali, or partial digestion with RNase T1 (G-specific cleavage) (see FIG. 6a). Composite plots of the fraction of RNA cleaved at specific sites versus the logarithm of the concentration of ligand (e.g. FIG. 7a) were generated to provide an estimate of the apparent KD. Fraction cleaved values were normalized relative to the highest and lowest cleavage values measured for each site.
NR, ^−OH and T1 represent RNAs subjected to no reaction, partial digestion with alkali, or partial digestion with RNase Tl (G-specific cleavage), respectively. Product bands representing cleavage after selected G residues are numbered and identified by filled arrowheads. The asterisk identifies modulation of RNA structure involving the Shine-Dalgarno (SD) sequence. Gel separations were analyzed using a phosphorimager (Molecular Dynamics) and quantitated using ImageQuant software.

[5] = tested on: xpt-pbuX 5′-UTR fused to β-galactosidase reporter gene; assay: xpt-lacZ β-galactosidase reporter expression; format: cell-based, B. subtilis; settings: wild-type xpt construct, six-hour incubation
[6] = tested on: 93 xpt RNA (C to U mutation at position 74); format: binding, B. subtilis
[7] = tested on: wild-type ydhL riboswitch fused to β-galactosidase reporter gene; assay: ydhL-lacZ β-galactosidase reporter expression; format: cell-based, B. subtilis
[8] = tested on: xpt riboswitch variant with the C to U mutation at position 74, reporter construct; format: cell-based, B. subtilis
93 xpt RNA [9] = assay: Equilibrium dialysis with 93 xpt RNA; format: binding, B. subtilis; settings: 500 nM analog
91 thiM RNA = assay: Equilibrium dialysis with thiM RNA using 3H-thiamine; format: binding, E. coli; settings: 100 μM competitor (Example 2)
ribD RNA = assay: In-line probing of ribD RNA (RFN element); format: binding, B. subtilis
Protocol: To assess whether the RFN element of ribD was responsive to FMN, a fragment of the corresponding 5′-UTR was 5′-^32P labeled and incubated in the absence and presence of FMN, and the resulting fragments were analyzed by polyacrylamide gel electrophoresis (PAGE). […] To obtain values for apparent dissociation constant (apparent KD) for FMN, in-line probing assays were repeated with trace amounts of ribD RNA and increasing concentrations of FMN; the ligand concentration that correlates with half-maximal modulation of RNA structure should reflect the apparent KD.

[10] = tested on: lysC 5′-UTR fused to lacZ reporter gene; format: cell-based, B. subtilis; settings: wild-type construct, minimal medium plus 1 mM compound
179 lysC RNA [11] = assay: In-line probing of 179 lysC RNA; settings: read-out: apparent KD; lysine analogs, data not shown, RNA construct not stated
btuB leader-lacZ fusion [12] = settings: from Nou and Kadner; Lundrigan and Kadner; cited from earlier work
[13] = tested on: 202-nucleotide mRNA leader (btuB); assay: Equilibrium dialysis with btuB mRNA leader; settings: 5,000 pmoles unlabeled compound added to chamber b
[14] = translational fusion, 100 μM thiamine, minimal medium

13-epi-AdoCbl [compound 11]
structural modulation (spontaneous cleavage at site 2, U68) [1]: inactive
regulatory effector function on reporter gene inside cells (btuB leader-lacZ fusion [2]): inactive

Nc1nc(N)c2[nH]cnc2n1 [2,6-DAP, 2,6-diaminopurine]
binding / structural modulation (80 ydhL RNA): measurable binding; also recorded: tightest-binding ligand

Nc1nc(Br)c2[nH]cnc2n1 [2-amino-6-bromopurine]
loss in apparent KD relative to guanine (93 xpt RNA [3]): ~1,000 fold

Nc1ncc2[nH]cnc2n1 [2-aminopurine]
binding / structural modulation (80 ydhL RNA): measurable binding

Nc1ncnc2nc(Cl)[nH]c12 [8-chloroadenine]
binding / structural modulation (80 ydhL RNA): prevents ligand binding

NCCCC[C@@H](N)C(=O)O [D-lysine]
restoration of equal tritium distribution by unlabeled competitor (179 lysC RNA [4]): do not restore equal distribution of tritium
induction of transcription termination (lysC 5′-UTR template): Neither D-lysine nor L-ornithine induce termination

NCCC[C@H](N)C(=O)O [L-ornithine]
restoration of equal tritium distribution by unlabeled competitor (179 lysC RNA [4]): do not restore equal distribution of tritium
induction of transcription termination (lysC 5′-UTR template): Neither D-lysine nor L-ornithine induce termination

CNc1ncnc2nc[nH]c12 [MA, 6-methylaminopurine]
binding / structural modulation (80 ydhL RNA): measurable binding

COc1nc(N)nc2nc[nH]c12 [O^6-methylguanine]
loss in apparent KD relative to guanine (93 xpt RNA [3]): > 100 fold

c1ncc2[nH]cnc2n1 [P, purine]
binding / structural modulation (80 ydhL RNA): measurable binding

Nc1ncnc2c1ncn2[C@@H]1O[C@H](CSC[C@H](N)C(=O)O)[C@@H](O)[C@H]1O [SAC]
discrimination relative to SAM (124 yitJ RNA): ~10,000 fold
modulation of transcription termination (metI leader construct): little or no modulation of transcription termination

Nc1ncnc2c1ncn2[C@@H]1O[C@H](CSCC[C@H](N)C(=O)O)[C@@H](O)[C@H]1O [SAH, S-adenosylhomocysteine]
discrimination relative to SAM (124 yitJ RNA): ~100 fold
modulation of transcription termination (metI leader construct): little or no modulation of transcription termination

Cc1ncc(C[n+]2csc(CCOP(=O)(O)O)c2C)c(N)n1 [TP, thiamine monophosphate]
structure modulation (165 thiM RNA): induce modulation
pKd (165 thiM RNA): 5.52

Nc1ncnc2nc[nH]c12 [adenine]
modulation of spontaneous cleavage pattern (93 xpt RNA [3]): does not alter the pattern of RNA cleavage products
apparent KD poorer than for guanine (93 xpt RNA [3]; guanine riboswitch from B. subtilis xpt): at least 100,000 fold
pKd (93 xpt RNA [3]; read-out: KD): < 3.52
repression of reporter expression [5]: ~4 fold
binding / structural modulation (80 ydhL RNA): specific for adenine
pKd (80 ydhL RNA; half-maximal change at sites 1 through 4, read-out: apparent KD): ~6.52
binding / structural modulation (80 ydhL RNA; listed as A): measurable binding
structural modulation and binding in equilibrium dialysis [6]: exhibits structural modulation and binding activity
pKd ([6]; read-out: apparent KD): ~7.00
increase in gene expression [7]: greater than 10 fold
regulation of reporter expression [8]: no change in the putative protein-dependent control

Nc1nc2c(ncn2[C@@H]2O[C@H](CO)[C@@H](O)[C@H]2O)c(=O)[nH]1 [guanosine]
redistribution of 3H-guanine by excess unlabeled competitor (93 xpt RNA [9]): fails to restore equal distribution

O=c1[nH]cnc2nc[nH]c12 [hypoxanthine]
modulation of spontaneous cleavage pattern (93 xpt RNA [3]): induce modulation of spontaneous cleavage

Cc1ncc(C[n+]2csc(CCO)c2C)c(=O)[nH]1 [oxythiamine]
structure modulation (165 thiM RNA): fail to induce structure modulation
reversal of 3H-thiamine shift by excess unlabeled compound (91 thiM RNA): does not significantly restore the tritium distribution to unity; also recorded: could not be reversed

Cc1cc2nc3c(=O)[nH]c(=O)nc-3n(C[C@H](O)[C@H](O)[C@H](O)CO)c2cc1C [riboflavin]
discrimination relative to FMN (ribD RNA): approximately three orders of magnitude
discrimination relative to FMN (ribD RNA; worded for FMN riboswitches): ~1,000 fold

Cc1ncc(C[n+]2csc(CCO)c2C)c(N)n1 [thiamine]
structure modulation (165 thiM RNA): induce modulation
pKd (165 thiM RNA): 4.40
reversal of 3H-thiamine shift by excess unlabeled compound (91 thiM RNA): could be eliminated
suppression of β-galactosidase activity (thiM-lacZ fusion; transcriptional fusion): not subject to suppression
thiamine-dependent suppression of β-galactosidase activity (thiM-lacZ fusion; [14]): 18 fold
modulation of β-galactosidase activity (thiC-lacZ fusion; transcriptional fusion): 16 fold
thiamine-dependent suppression of β-galactosidase activity (thiC-lacZ fusion; [14]): 110 fold

NCCSC[C@H](N)C(=O)O [thiosine, S-(2-aminoethyl)-L-cysteine]
repression of β-galactosidase reporter expression [10]: represses β-galactosidase expression
pKd (179 lysC RNA [11]): ~4.52
induction of transcription termination (lysC 5′-UTR template): cause an increase in transcription termination

O=c1[nH]c(=O)c2[nH]cnc2[nH]1 [xanthine]
modulation of spontaneous cleavage pattern (93 xpt RNA [3]): induce modulation of spontaneous cleavage

cyanocobalamin
regulatory effector for btuB expression (btuB leader-lacZ fusion [12]): incapable of serving as a regulatory effector
restoration of equal tritium distribution by excess unlabeled compound [13]: does not restore the ratio of tritium to unity
